Laboratory results taken from PMC11243693, “Synthesis and Biological Evaluation of New Compounds with Nitroimidazole Moiety” (Molecules, 2024).
Converted amounts (≈) assume the structure as drawn.

Tests used:
HaCaT cells = assay: MTT assay, HaCaT normal cells; assay type: cell-based; conditions: HaCaT human immortal keratinocyte (normal cells), 24 h, mean SD
Method: (§1) Colon cancer (SW480), breast adenocarcinoma (MDA-MB-231), lung carcinoma (A-549), prostate cancer (PC3), and immortal keratinocyte (HaCaT) cell lines of human origin were acquired from the American Type Culture Collection (ATCC). The recommended culture media and protocols provided by ATCC were as follows: SW480 were cultured in Minimum Essential Medium (MEM), MDA-MB-231, A-549, and HaCaT cells were cultured in Dulbecco’s Modified Eagle Medium (DMEM), while PC3 was cultured in Roswell Park Memorial Institute Medium (RPMI). The culture media were supplemented with 10% fetal bovine serum (FBS), penicillin (100 U/mL), and streptomycin (100 μg/mL). Cells were maintained in a humidified incubator at 37 °C with 5% CO2. Passaging was carried out upon reaching 80–90% confluence using 0.25% trypsin (Gibco Life Technologies, New York, NY, USA) treatment prior to experimentation.
(§2) Cell viability was assessed utilizing the MTT assay, which relies on the conversion of 3-(4,5-dimethylthiazol-2-yl)-2,5-diphenyltetrazolium bromide salt (MTT) to formazan crystals by mitochondrial dehydrogenases in viable cells. Initially, cells were plated in 96-well plates at a density of 1 × 10^4 cells per well and allowed to attach for 24 h at 37 °C in a CO2 incubator. Subsequently, the culture medium was replaced with fresh medium containing various concentrations of the test compounds (ranging from 1 to 100 μM), and cells were further cultured for 24 h at 37 °C in a CO2 incubator. Control wells were left untreated for comparison. After the incubation period, MTT solution (0.5 mg/mL in serum-free medium) was added to each well, followed by a 4-h incubation at 37 °C in a CO2 incubator. The medium was then aspirated, and the formazan crystals were dissolved by adding a mixture of isopropanol and DMSO (1:1). The absorbance of the resulting solution was measured at 570 nm using a UVM 340 reader (ASYS Hitech GmbH, Seekirchen am Wallersee, Austria). IC50 values were determined using GraphPad software (GraphPad Prism 8 Software).

MDA-MB-231 cells = assay: MTT assay, MDA-MB-231 cells; assay type: cell-based, human; conditions: for IC50: MDA-MB-231 human breast adenocarcinoma, MTT, 24 h, mean SD; for SI (Selectivity Index): IC50 for normal cell line (HaCaT)/IC50 MDA-MB-231
Method: as §1, §2

A-549 cells = assay: MTT assay, A-549 cells; assay type: cell-based, human; conditions: for IC50: A-549 human lung carcinoma, MTT, 24 h, mean SD; for SI (Selectivity Index): IC50 for normal cell line (HaCaT)/IC50 A-549
Method: as §1, §2

SW620 cells = assay: MTT assay, SW620 cells; assay type: cell-based, human; conditions: for IC50: SW620 human metastatic colon cancer, MTT, 24 h, mean SD; for SI (Selectivity Index): IC50 for normal cell line (HaCaT)/IC50 SW620
[1] = system: Candida lusitaniae ATCC 3449; assay: Broth microdilution, C. lusitaniae ATCC 3449; assay type: cell-based; conditions: Cl 3449
Summary of the method: (§3)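 EUCAST broth microdilution with twofold dilutions from a 1000 µg/mL starting solution, in Mueller-Hinton broth for B. cereus or Mueller-Hinton plus 2% glucose for Candida. Inoculum was a 10-fold diluted 0.5 McFarland suspension. After 18 ± 2 h at 35 ± 2 °C, MIC was read by A570; MBC/MFC by subculture showing 99.9% kill.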

[2] = system: Staphylococcus aureus ATCC 43300 methicillin-resistant MRSA; assay: Broth microdilution, S. aureus ATCC 43300 MRSA; assay type: cell-based; conditions: Sa 43300 MRSA
Summary of the method: (§4)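 EUCAST broth microdilution: inoculum 0.5 McFarland, 10-fold diluted; Mueller-Hinton broth (bacteria) or MH + 2% glucose (yeast); twofold dilutions from 1000 µg/mL; 18 ± 2 h at 35 ± 2 °C, A570 read for MIC. MBC/MFC from subculture on MHA or MHA + 2% glc (99.9% kill).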

[3] = system: Candida glabrata ATCC 15126; assay: Broth microdilution, C. glabrata ATCC 15126; assay type: cell-based; conditions: Cg 15126
Summary of the method: as §3

Candida spp. = assay: Broth microdilution, Candida spp.; assay type: cell-based; conditions: range over both strains and the listed compounds
Method: The antibacterial activity of the obtained thiosemicarbazides and hydrazide–hydrazones was determined by evaluating their ability to inhibit microbial growth in vitro using the broth microdilution method, according to the guidelines of the European Committee on Antimicrobial Susceptibility Testing (EUCAST). The method involved the preparation of microbial suspensions with a standardized density of 0.5 on the McFarland scale (equivalent to 1.5 × 10^8 colony-forming units/mL for bacteria and […] for fungi). A solution of the test substances was then prepared (initial concentration 1000 µg/mL, diluted in sterile Mueller-Hinton broth for bacteria or Mueller-Hinton with 2% glucose for fungi). The test was carried out in 96-well polystyrene flat-bottom plates (Medlab, Poland) with 100 µL of appropriate sterile microbiological medium in each well. The first wells were filled with 200 µL of the test substance, diluted to the initial concentration, and then double-decreasing dilutions were made under aseptic conditions using an automatic pipette. The final step was the addition of a 10-fold diluted microbial suspension of 2 µL. At the same time, the following controls were included: (a) medium control (100 µL of sterile medium without microorganisms added), (b) microbial viability control, (c) test substance control (dilutions without added micro-organisms), (d) positive control of the drug used in the clinic. The plates thus prepared were incubated for 18 ± 2 h at 35 ± 2 °C under conditions optimal for the growth of the test microorganisms. After incubation, the spectrophotometric absorbance at 570 nm in each well of the plate was read. The aim of this part of the study was to determine two parameters: the minimum inhibitory concentration (MIC) and the minimum bactericidal or fungicidal concentration (MBC/MFC) of the test compound. […] The MBC value was determined by adding 5 µL of the contents of each well of the plate to solid sterile MHA or MHA + 2%glc medium for bacteria and fungi, respectively. The area on the plate where 99.9% inhibition of microbial growth was observed indicated the lethal concentration. In addition, the quotient MBC(MFC)/MIC could be determined to assess the nature of the activity of the test substance. If MBC(MFC)/MIC was <4, the test substance was bactericidal/fungicidal, whereas if MBC(MFC)/MIC was ≥4, it was bacteriostatic/fungistatic. Amoxicillin (Glentham Life Sciences, USA) and nystatin (Glentham Life Sciences, USA) were used as the controls for this assay.
The test was performed either on bacteria, comprising: Gram-positive (Staphylococcus aureus ATCC 25923, Staphylococcus aureus ATCC 6538, Staphylococcus aureus ATCC 43300 methicillin-resistant MRSA, Staphylococcus epidermidis ATCC 12228, Micrococcus luteus ATCC 10240, Bacillus subtilis ATCC 6633, Bacillus cereus ATCC 10876) and Gram-negative (Escherichia coli ATCC 25922, Pseudomonas aeruginosa ATCC 27853, Proteus mirabilis ATCC 12453, Klebsiella pneumoniae ATCC 13883) or yeast (Candida parapsilosis ATCC 22019, Candida glabrata ATCC 90030, Candida krusei ATCC 14243, Candida glabrata ATCC 15126, Candida tropicalis ATCC 1369, Candida auris CDC B11903, Candida lusitaniae ATCC 3449) reference strains from the American Type Culture Collection (ATCC) or the Centers for Disease Control and Prevention (CDC).

[4] = system: Candida krusei ATCC 14243; assay: Broth microdilution, C. krusei ATCC 14243; assay type: cell-based; conditions: Ck 14243
Summary of the method: as §3

[5] = system: Bacillus subtilis ATCC 6633; assay: Broth microdilution, B. subtilis ATCC 6633; assay type: cell-based; conditions: Bs 6633; for MBC/MIC Ratio: <4 bactericidal, ≥4 bacteriostatic
Summary of the method: as §4

[6] = system: Candida parapsilosis ATCC 22019; assay: Broth microdilution, C. parapsilosis ATCC 22019; assay type: cell-based; conditions: Cp 22019
Summary of the method: as §3

[7] = system: Staphylococcus aureus ATCC 25923; assay: Broth microdilution, S. aureus ATCC 25923; assay type: cell-based; conditions: Sa 25923
Summary of the method: as §4

[8] = system: Staphylococcus epidermidis ATCC 12228; assay: Broth microdilution, S. epidermidis ATCC 12228; assay type: cell-based; conditions: Se 12228
Summary of the method: as §4

[9] = system: Candida glabrata ATCC 90030; assay: Broth microdilution, C. glabrata ATCC 90030; assay type: cell-based; conditions: Cg 90030
Summary of the method: as §3

[10] = system: Bacillus cereus ATCC 10876; assay: Broth microdilution, B. cereus ATCC 10876; assay type: cell-based; conditions: Bc 10876
Summary of the method: as §3

[11] = system: Candida tropicalis ATCC 1369; assay: Broth microdilution, C. tropicalis ATCC 1369; assay type: cell-based; conditions: Ct 1369
Summary of the method: as §3

Candida auris CDC B11903 = assay: Broth microdilution, C. auris CDC B11903; assay type: cell-based; conditions: Ca B11903
Summary of the method: as §3

[12] = system: Staphylococcus aureus ATCC 6538; assay: Broth microdilution, S. aureus ATCC 6538; assay type: cell-based; conditions: Sa 6538
Summary of the method: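 MIC: A570 after 18 ± 2 h, 35 ± 2 °C. Medium: MH broth (bacterium) or MH + 2% glucose (yeasts). Serial 2-fold dilutions of compound, top solution 1000 µg/mL. Inoculum: 0.5 McFarland suspension diluted 10×. MBC/MFC: subculture onto MHA or MHA + 2% glc, 99.9% growth inhibition.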

[13] = system: Micrococcus luteus ATCC 10240; assay: Broth microdilution, M. luteus ATCC 10240; assay type: cell-based; conditions: Ml 10240
Summary of the method: as §4

PC3 cells = assay: MTT assay, PC3 cells; assay type: cell-based, human; conditions: for SI (Selectivity Index): IC50 for normal cell line (HaCaT)/IC50 PC3; for IC50: PC-3, PC3 human metastatic prostate cancer, MTT, 24 h, mean SD
Method: as §1, §2

[14] = <4 bactericidal, ≥4 bacteriostatic

Structure (SMILES)	IC50 (HaCaT cells) [µM]	IC50 (MDA-MB-231 cells) [µM]	MIC [1] [µg/mL]	MIC [2] [µg/mL]	MIC [3] [µg/mL]	MBC (range, C. parapsilosis ATCC 22019 and C. tropicalis ATCC 1369) (Candida spp.) [µg/mL]	MIC (range, C. parapsilosis ATCC 22019 and C. tropicalis ATCC 1369) (Candida spp.) [µg/mL]	MIC [4] [µg/mL]	MBC [5] [µg/mL]	MIC [5] [µg/mL]	MBC/MIC Ratio [5]	MFC [6] [µg/mL]	MIC [6] [µg/mL]	MBC [7] [µg/mL]	MIC [7] [µg/mL]	MBC [8] [µg/mL]	MIC [8] [µg/mL]	IC50 (A-549 cells; A549) [µM]	IC50 (PC3 cells) [µM]	IC50 (SW620 cells; SW-620) [µM]	also measured
N.N.[Cl][Pt][Cl] [Cisplatin, cisplatin]	6.3 ± 0.7	7.8 ± 0.98																			IC50 (A-549 cells): 3.2 ± 1.24 µM; IC50 (SW620 cells): 6.7 ± 1.1 µM
Cn1cc([N+](=O)[O-])nc1C(=O)NNC(=S)Nc1ccccc1C(F)(F)F [Compound 12]			>1000	1000 (≈ 2580 µM)	>1000	500 to 1000	62.5 to 1000	>1000	250 (≈ 644 µM)	250 (≈ 644 µM)	1	>1000	125 (≈ 322 µM)	>1000	250 (≈ 644 µM)	500 (≈ 1290 µM)	500 (≈ 1290 µM)				MBC [2]: >1000 µg/mL; MBC/MIC Ratio [8, 14]: 1; MIC [9]: >1000 µg/mL; MBC [10]: 500 µg/mL (≈ 1290 µM); MIC [10]: 500 µg/mL (≈ 1290 µM); MBC/MIC Ratio [10, 14]: 1; MFC [11]: 1000 µg/mL (≈ 2580 µM); MIC [11]: 500 µg/mL (≈ 1290 µM); MFC/MIC Ratio ([11]; <4 fungicidal, ≥4 fungistatic): 2; MIC (Candida auris CDC B11903): >1000 µg/mL; MBC [12]: >1000 µg/mL; MIC [12]: 500 µg/mL (≈ 1290 µM); MBC [13]: 500 µg/mL (≈ 1290 µM); MIC [13]: 250 µg/mL (≈ 644 µM); MBC/MIC Ratio [13, 14]: 2
Cn1cc([N+](=O)[O-])nc1C(=O)NNC(=S)Nc1cccc(C(F)(F)F)c1 [Compound 13]			>1000	>1000	>1000	500 to 1000	62.5 to 1000	>1000	500 (≈ 1290 µM)	500 (≈ 1290 µM)	1	1000 (≈ 2580 µM)	500 (≈ 1290 µM)	>1000	500 (≈ 1290 µM)	>1000	1000 (≈ 2580 µM)				MFC/MIC Ratio ([6]; <4 fungicidal, ≥4 fungistatic): 2; MIC [9]: >1000 µg/mL; MBC [10]: >1000 µg/mL; MIC [10]: 1000 µg/mL (≈ 2580 µM); MIC [11]: >1000 µg/mL; MIC (Candida auris CDC B11903): >1000 µg/mL; MIC [12]: >1000 µg/mL; MBC [13]: >1000 µg/mL; MIC [13]: 500 µg/mL (≈ 1290 µM)
COc1ccc(C=NNC(=O)c2nc([N+](=O)[O-])cn2C)c(O)c1 [Compound 30, N’-[(2-hydroxy-4-methoxyphenyl)methylidene]-1-methyl-4-nitro-1H-imidazole-2-carbohydrazide]	97 ± 5.48	> 100																> 100	70.2 ± 4.2	64.2 ± 6.88	SI (Selectivity Index) (PC3 cells): 1.4; melting point: 214 to 216 °C; SI (Selectivity Index) (SW620 cells): 1.5
COc1ccc(O)c(C=NNC(=O)c2nc([N+](=O)[O-])cn2C)c1 [Compound 31, N’-[(2-hydroxy-5-methoxyphenyl)methylidene]-1-methyl-4-nitro-1H-imidazole-2-carbohydrazide]	> 100	> 100																> 100	70.4 ± 2.76	86.3 ± 3.81	SI (Selectivity Index) (MDA-MB-231 cells): 1; SI (Selectivity Index) (A-549 cells): 1; melting point: 236 to 238 °C
COc1cccc2c1C(=O)c1c(O)c3c(c(O)c1C2=O)C[C@@](O)(C(=O)CO)C[C@@H]3O[C@H]1C[C@H](N)[C@H](O)[C@H](C)O1 [Doxo-rubicin, doxorubicin]	0.3 ± 0.1	1.6 ± 0.23																0.2 ± 0.09	0.3 ± 0.1	0.3 ± 0.1	SI (Selectivity Index) (MDA-MB-231 cells): 0.19; SI (Selectivity Index) (A-549 cells): 1.5; SI (Selectivity Index) (PC3 cells): 1; SI (Selectivity Index) (SW620 cells): 1.0
